Among the data in patent US10294234B2, “HIV inhibitor compounds” (priority 2017, dated 2019) are EC50 values, retold here.

Read-outs that look alike come from different tables or passages of the source.

The test system of this experiment is HIV-1 (IIIB) in MT-4 cells. The experiment is described as follows: MT-4 HIV assay. It is filed as cell-based. The settings on record: Human immunodeficiency virus 1, MT4, 120 h. The procedure:
Compounds were tested in a high-throughput 384-well assay format for their ability to inhibit the replication of HIV-1 (IIIB) in MT-4 cells. Compounds were serially diluted (1:3) in DMSO on 384-well polypropylene plates and further diluted 200-fold into complete RPMI media (10% FBS, 1% P/S) using the Biotek Micro Flow and Agilent ECHO acoustic dispenser. Each plate contained up to 8 test compounds, with negative (No Drug Control) and 5 uM AZT positive controls. MT-4 cells were pre-infected with 10 uL of either RPMI (mock-infected) or a fresh 1:250 dilution of an HIV-1 (IIIB) concentrated virus stock. Infected and uninfected MT-4 cells were further diluted in complete RPMI media and added to each plate using a Micro Flow dispenser. After 5 days incubation in a humidified and temperature controlled incubator (37° C.), Cell Titer Glo (Promega) was added to the assay plates to quantify the amount of luciferase.

The mark [1] stands for this setting: HIV-1 (IIIB), MT-4 cells, 5 days, Cell Titer Glo, read-out: EC50.

Consider `COC(=O)N[C@H](C(=O)NN(Cc1c(F)cc(-c2ncccn2)cc1F)C[C@H](O)[C@H](Cc1ccc(C#Cc2ccc(N3CCN(C4COC4)CC3)nc2)cc1)NC(=O)[C@@H](NC(=O)OC)C(C)(C)C(F)(F)F)C(C)(C)C` [Example 94, methyl ((5S,8S,9S,14S)-11-(2,6-difluoro-4-(pyrimidin-2-yl)benzyl)-9-hydroxy-15,15-dimethyl-8-(4-((6-(4-(oxetan-3-yl)piperazin-1-yl)pyridin-3-yl)ethynyl)benzyl)-3,6,13-trioxo-5-(1,1,1-trifluoro-2-methylpropan-2-yl)-2-oxa-4,7,11,12-tetraazahexadecan-14-yl)carbamate], for which the EC50 (in general, the concentration needed to bring the measured effect to its halfway point) under setting [1] amounted to 2.57 nM.
On the same count and under the same terms, under `COC(=O)N[C@H](C(=O)N[C@@H](Cc1ccc(C#Cc2ccc(N3CC4CCC(C3)N4C3COC3)nc2)cc1)[C@@H](O)CN(Cc1c(F)cc(-c2ccn(C)n2)cc1F)NC(=O)[C@@H](NC(=O)OC)C(C)(C)C)C(C)(C)C` [Example 22, Methyl ((5S,8S,9S,14S)-5-(tert-butyl)-1-(2,6-difluoro-4-(1-methyl-1H-pyrazol-3-yl)benzyl)-9-hydroxy-15,15-dimethyl-8-(4-((6-(8-(oxetan-3-yl)-3,8-diazabicyclo[3.2.1]octan-3-yl)pyridin-3-yl)ethynyl)benzyl)-3,6,13-trioxo-2-oxa-4,7,11,12-tetraazahexadecan-14-yl)carbamate] stands 3.24 nM.
`COC(=O)N[C@H](C(=O)N[C@@H](Cc1ccc(C#Cc2ccc(N3CCN(C4(C)COC4)CC3)nc2)cc1)[C@@H](O)CN(Cc1c(F)cc(-c2ccn(C(F)F)n2)cc1F)NC(=O)[C@@H](NC(=O)OC)C(C)(C)C(F)(F)F)C(C)(C)C(F)(F)F` [Example 141, methyl ((5S,8S,9S,14S)-11-(4-(1-(difluoromethyl)-1H-pyrazol-3-yl)-2,6-difluorobenzyl)-16,16,16-trifluoro-9-hydroxy-15,15-dimethyl-8-(4-((6-(4-(3-methyloxetan-3-yl)piperazin-1-yl)pyridin-3-yl)ethynyl)benzyl)-3,6,13-trioxo-5-(1,1,1-trifluoro-2-methylpropan-2-yl)-2-oxa-4,7,11,12-tetraazahexadecan-14-yl)carbamate]: the EC50 was found to be 6.68 nM.
Still for that read-out and setting: under `COC(=O)N[C@H](C(=O)N[C@@H](Cc1ccc(C#Cc2ccc(N3C[C@H]4C[C@@H]3CN4C3COC3)nc2)cc1)[C@@H](O)CN(Cc1c(F)cc(-c2nnc(C3CC3)s2)cc1F)NC(=O)[C@@H](NC(=O)OC)C(C)(C)C(F)(F)F)C(C)(C)C(F)(F)F` [Example 27, Methyl ((5S,8S,9S,14S)-11-(4-(5-cyclopropyl-1,3,4-thiadiazol-2-yl)-2,6-difluorobenzyl)-16,16,16-trifluoro-9-hydroxy-15,15-dimethyl-8-(4-((6-((1R,4R)-5-(oxetan-3-yl)-2,5-diazabicyclo[2.2.1]heptan-2-yl)pyridin-3-yl)ethynyl)benzyl)-3,6,13-trioxo-5-(1,1,1-trifluoro-2-methylpropan-2-yl)-2-oxa-4,7,11,12-tetraazahexadecan-14-yl)carbamate] stands 3.5 nM.
As to `COC(=O)N[C@H](C(=O)NN(Cc1c(F)cc(-c2ccn(C(F)F)n2)cc1F)C[C@H](O)[C@H](Cc1ccc(C#Cc2ccc(N3CCN4CCOC[C@H]4C3)nc2)cc1)NC(=O)[C@@H](NC(=O)OC)C(C)(C)C(F)(F)F)C(C)(C)C` [Example 13, Methyl ((5S,8S,9S,14S)-11-(4-(1-(difluoromethyl)-1H-pyrazol-3-yl)-2,6-difluorobenzyl)-8-(4-((6-((R)-hexahydropyrazino[2,1-c][1,4]oxazin-8(1H)-yl)pyridin-3-yl)ethynyl)benzyl)-9-hydroxy-15,15-dimethyl-3,6,13-trioxo-5-(1,1,1-trifluoro-2-methylpropan-2-yl)-2-oxa-4,7,11,12-tetraazahexadecan-14-yl)carbamate], the EC50 under setting [1] came out at 6.3 nM.
The same measure, in the same setting: the result for `COC(=O)N[C@H](C(=O)N[C@@H](Cc1ccc(C#Cc2ccc(N3CC4CCC(C3)N4C3COC3)nc2)cc1)[C@@H](O)CN(Cc1c(F)cc(-c2ccc(C(F)F)nc2)cc1F)NC(=O)[C@@H](NC(=O)OC)C(C)(C)C(F)(F)F)C(C)(C)C(F)(F)F` [Example 100, Methyl ((5S,8S,9S,14S)-11-(4-(6-(difluoromethyl)pyridin-3-yl)-2,6-difluorobenzyl)-16,16,16-trifluoro-9-hydroxy-15,15-dimethyl-8-(4-((6-(8-(oxetan-3-yl)-3,8-diazabicyclo[3.2.1]octan-3-yl)pyridin-3-yl)ethynyl)benzyl)-3,6,13-trioxo-5-(1,1,1-trifluoro-2-methylpropan-2-yl)-2-oxa-4,7,11,12-tetraazahexadecan-14-yl)carbamate] reads 7.96 nM; that for `COC(=O)N[C@H](C(=O)N[C@@H](Cc1ccc(C#Cc2ccc(N3CCN4CCOC[C@H]4C3)nc2)cc1)[C@@H](O)CN(Cc1c(F)cc(-c2cc(F)ccn2)cc1F)NC(=O)[C@@H](NC(=O)OC)C(C)(C)C(F)(F)F)C(C)(C)C(F)(F)F` [Example 137, Methyl ((5S,8S,9S,14S)-11-(2,6-difluoro-4-(4-fluoropyridin-2-yl)benzyl)-16,16,16-trifluoro-8-(4-((6-((R)-hexahydropyrazino[2,1-c][1,4]oxazin-8(1H)-yl)pyridin-3-yl)ethynyl)benzyl)-9-hydroxy-15,15-dimethyl-3,6,13-trioxo-5-(1,1,1-trifluoro-2-methylpropan-2-yl)-2-oxa-4,7,11,12-tetraazahexadecan-14-yl)carbamate], 3.31 nM.
The same measure, in the same setting: the result for `COC(=O)N[C@H](C(=O)NN(Cc1c(F)cc(-c2ccccn2)cc1F)C[C@H](O)[C@H](Cc1ccc(C#Cc2ccc(N3CC4CCC(C3)N4C(=O)[C@@H]3CCCO3)nc2)cc1)NC(=O)[C@@H](NC(=O)OC)C(C)(C)C(F)(F)F)C(C)(C)C` [Example 224, Methyl ((5S,8S,9S,14S)-11-(2,6-difluoro-4-(pyridin-2-yl)benzyl)-9-hydroxy-15,15-dimethyl-3,6,13-trioxo-8-(4-((6-(8-((S)-tetrahydrofuran-2-carbonyl)-3,8-diazabicyclo [3.2.1]octan-3-yl)pyridin-3-yl)ethynyl)benzyl)-5-(1,1,1-trifluoro-2-methylpropan-2-yl)-2-oxa-4,7,11,12-tetraazahexadecan-14-yl)carbamate] reads 4.12 nM.
Regarding `COC(=O)N[C@H](C(=O)N[C@@H](Cc1ccc(C#Cc2ccc(N3CC4CCC(C3)N4CC3CNC3)nc2)cc1)[C@@H](O)CN(Cc1c(F)cc(-c2cnn(C(F)F)c2)cc1F)NC(=O)[C@@H](NC(=O)OC)C(C)(C)C(F)(F)F)C(C)(C)C(F)(F)F` [Example 109, Methyl ((5S,8S,9S,14S)-8-(4-((6-(8-(azetidin-3-ylmethyl)-3,8-diazabicyclo[3.2.1]octan-3-yl)pyridin-3-yl)ethynyl)benzyl)-11-(4-(1-(difluoromethyl)-1H-pyrazol-4-yl)-2,6-difluorobenzyl)-16,16,16-trifluoro-9-hydroxy-15,15-dimethyl-3,6,13-trioxo-5-(1,1,1-trifluoro-2-methylpropan-2-yl)-2-oxa-4,7,11,12-tetraazahexadecan-14-yl)carbamate], the EC50 under setting [1] was determined as 59.7 nM.
